Our source for the IC50, solubility and half-life values is US11883387B2, “PqsR inverse agonists” (HELMHOLTZ-ZENTRUM FÜR INFEKTIONSFORSCHUNG GMBH, priority 2018, dated 2024).

The IC50 is the concentration that gives 50% inhibition. For orientation: solubility means the concentration that dissolves in the medium under given conditions. A low value points to little dissolved substance.

The target in data set [1] is PqsR (Pseudomonas aeruginosa, UniProt Q9I4X0). As to the kind of experiment: E. coli based β-galactosidase reporter gene assay (PqsR inverse agonistic activity). The format is cell-based. Further details: expressed in transfected cells; host or cells: Escherichia coli DH5α. The procedure, abridged:
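E. coli DH5α carrying pEAL08-2 (tac-driven pqsR with pqsA-lacZ) was grown to OD600 0.2 and incubated with 0.001–10 μM compound plus 50 nM PQS for 2.5 h at 37 °C. β-Galactosidase activity was measured by ONPG conversion in permeabilized cells and normalized between the no-PQS and solvent controls. IC50 came from concentration variation.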
A general note: A reporter such as luciferase makes a cellular process visible.

The nature of data set [2]: Kinetic Turbidimetric Aqueous Solubility at room temperature for 5 min. The format is physicochemical. The settings on record: PBS buffer, kinetic from dmso stock, 2% DMSO. The procedure, abridged:
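Compound diluted in PBS across typically 0.4–200 μM (final DMSO 2%), held 5 min at room temperature. Turbidity read as absorbance at 620 nm against vehicle control. Four-parameter sigmoidal fit of normalized absorbances with AUC calculation gives Log S.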

Data set [3] can be described thus: Metabolic stability against human hepatic S9 fraction. The format is in vitro ADME. The settings on record: pooled human liver S9 fraction; 1 μM compound, 1 mg/mL pooled human liver S9, phase I and II cofactors, 37° C.; read-out: half-life (t1/2) towards human hepatic S9 fraction. How it is done: For the evaluation of combined phase I and phase II metabolic stability, the compound (1 μM) was incubated with 1 mg/mL pooled human liver S9 fraction (BD Gentest), 2 mM NADPH regenerating system, 1 mM UDPGA, 10 mM MgCl2 and 0.1 mM PAPS at 37° C. for 0, 5, 15, 30 and 60 min. The metabolic stability of Testosterone (1 μM) and 7-hydroxycoumarin (1 μM) were determined in parallel to confirm the enzymatic activity of the S9 fraction. The incubation was stopped by precipitation of S9 enzymes with 2 volumes of cold acetonitrile containing internal standard (750 nM Diphenhydramine). Samples were stored on ice for 10 min and precipitated protein was removed by centrifugation (10 min, 4° C., 17,000 g). Concentration of the remaining test compound at the different time points was analyzed by LC-MS/MS (TSQ Quantum Access MAX, Thermo Fisher, Dreieich, Germany) and used to determine half-life (t/2).

The subject of data set [4] is P. aeruginosa pyocyanin production. In words: Pyocyanin assay. The settings on record: Pseudomonas aeruginosa, PA14, 16 h, read-out: IC50-value towards pyocyanin production, PA14 in PPGAS medium, 16 h. It is filed as cell-based, P. aeruginosa PA14. An outline of the steps: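 PA14 in PPGAS medium from OD600 0.02 grown 16 h at 37 °C, 200 rpm, with compounds. Pyocyanin extracted with chloroform, back-extracted into 0.2 M HCl, OD520 normalised to OD600.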

Data set [5] deals with HepG2 cells. In words: Cytotoxicity (MTT) toward HepG2. The format is cell-based. The settings on record: Homo sapiens, 48 h, upper class: or at solubility maximum, read-out: IC50-value towards HepG2. How it is done: (§1) To obtain information regarding the toxicity of our compounds, their impact on the viability of human cells was investigated. HepG2 and HEK293 cells (2×10^5 per well) were seeded in 24-well, flat-bottomed culture plates. 24 h after seeding the cells the incubation was started by the addition of compounds in a final DMSO concentration of 1%. The living cell mass was determined 48 h after treatment with compounds by adding 0.1 volumes of 3-(4,5-dimethylthiazol-2-yl)-2,5-diphenyltetrazolium bromide (MTT) solution (5 mg per mL sterile PBS) (Sigma, St. Louis, MO) to the wells. After incubating the cells for 30 min at 37° C. (atmosphere containing 5% CO2), MTT crystals were dissolved in a solution containing 10% SDS and 0.5% acetic acid in DMSO. The optical density (OD) of the samples was determined photometrically at 570 nm in a FLUOstar Omega plate reader (BMG labtech, Ortenberg, Germany). To obtain inhibition values for each sample, their ODs were related to those of DMSO controls.

Data set [6] relates to HEK293 cells. In words: Cytotoxicity (MTT) toward HEK293. It is filed as cell-based. The settings on record: Homo sapiens, 48 h, upper class: or at solubility maximum, read-out: IC50-value towards HEK293. How it is done: as §1
A short description of data set [7]: Metabolic stability in mouse liver microsomes (MLM). The settings on record: 1 μM compound, 0.5 mg/mL MLM, 1 mM NADPH, 37° C., read-out: half-life (t1/2) towards MLM. It is filed as in vitro ADME. How it is done: For the evaluation of phase I metabolic stability, the compound (1 μM) was incubated with 0.5 mg/mL MLM (Corning) and 1 mM NADPH at 37° C. for 0, 5, 10, 15 and 30 min. The metabolic stability of Verapamil, Diphenhydramine and Benzydamine (1 μM each) were determined in parallel to confirm the enzymatic activity of the MLM. The incubation was stopped by addition of 2 volumes of acetonitrile containing internal standard (1 μM Leucine Enkephaline). Samples were centrifuged (15 min, 3,500 rpm). Concentration of the remaining test compound at the different time points was analyzed by HPLC-MS/MS and used to determine half-life (t1/2).
For orientation: Liver microsomes are a subcellular fraction often used to study metabolism.

The structures appear in SMILES notation.

Sequence of PqsR (Q9I4X0 whole entry): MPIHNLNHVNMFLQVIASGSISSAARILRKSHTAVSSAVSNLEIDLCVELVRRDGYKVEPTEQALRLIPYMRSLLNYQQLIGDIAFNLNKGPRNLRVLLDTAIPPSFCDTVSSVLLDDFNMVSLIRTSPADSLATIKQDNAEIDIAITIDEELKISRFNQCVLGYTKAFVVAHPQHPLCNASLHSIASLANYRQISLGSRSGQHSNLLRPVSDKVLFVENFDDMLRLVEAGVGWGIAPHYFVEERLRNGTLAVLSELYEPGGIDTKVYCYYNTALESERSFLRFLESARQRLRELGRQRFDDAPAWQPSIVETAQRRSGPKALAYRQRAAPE

For the compound `Nc1cc(SCc2nc3cc(Oc4ccccc4)ccc3[nH]2)nc(C(F)(F)F)n1` [Compound 125, 6-(((5-Phenoxy-1H-benzo[d]imidazol-2-yl)methyl)thio)-2-(trifluoromethyl)pyrimidin-4-amine], the IC50 in data set [1] is ≤ 50 nM; in data set [4] it was 251 to 1000 nM. For the same compound, the solubility at 5 min in data set [2] is > 25 µM. In addition, the half-life at 1 μM in data set [3] is > 1 h.
In the case of `Fc1cc2nc(CSc3ccnc(C(F)(F)F)c3)[nH]c2cc1F` [Compound 122, 5,6-Difluoro-2-(((2-(trifluoromethyl)pyridin-4-yl)thio)methyl)-1H-benzo[d]imidazole], the figures for the IC50 in data set [1], in data set [5] and in data set [6] were 251 to 1000 nM, ≥ 50000 nM and ≥ 50000 nM, respectively. Also, the solubility at 5 min in data set [2] is ≥ 100 µM.
Take `Nc1cc(SCc2nc3cc(Oc4cccc(F)c4)ccc3[nH]2)nc(C(F)(F)F)n1` [Compound 129, 6-(((5-(3-Fluorophenoxy)-1H-benzo[d]imidazol-2-yl)methyl)thio)-2-(trifluoromethyl)pyrimidin-4-amine]: the half-life at 1 μM in data set [7] fell in the range of 0.517 to 1 h. Besides, the IC50 in data set [1] was ≤ 50 nM; in data set [5], 25000 to 50000 nM; in data set [6], 25000 to 50000 nM.
Turning to `CC(C)Oc1ccc(-c2nc(CNc3ccnc(C(F)(F)F)c3)cs2)cc1` [Compound 087, N-((2-(4-Isopropoxyphenyl)thiazol-4-yl)methyl)-2-(trifluoromethyl)pyridin-4-amine], the IC50 is ≤ 50 nM in data set [1] and ≤ 250 nM in data set [4]. Also, in data set [2], the solubility at 5 min was > 10 µM. In data set [3], the half-life at 1 μM is > 1 h.
Take `Fc1cc(-n2cc(CNc3ccnc(C(F)(F)F)c3)nn2)ccc1Oc1ccccc1` [Compound 028, N-((1-(3-fluoro-4-phenoxyphenyl)-1H-1,2,3-triazol-4-yl)methyl)-2-(trifluoromethyl)pyridin-4-amine]: the IC50 in data set [1] is ≤ 50 nM; in data set [5], 25000 to 50000 nM; in data set [6], 25000 to 50000 nM; in data set [4], 251 to 1000 nM.
For the compound `N#Cc1cc(NCc2cnc(-c3ccc(Oc4ccccc4)cc3)s2)ccn1` [Compound 076, 4-(((2-(4-Phenoxyphenyl)thiazol-5-yl)methyl)amino)picolinonitrile], the half-life at 1 μM in data set [7] and in data set [3] was > 1 h throughout. Moreover, the IC50 was ≤ 50 nM in data set [1] and ≤ 250 nM in data set [4].
Turning to `FC(F)(F)c1cc(SCc2cnc(-c3ccc(Oc4ccccc4)cc3)s2)ccn1` [Compound 066, 2-(4-Phenoxyphenyl)-5-(((2-(trifluoromethyl)pyridin-4-yl)thio)methyl)thiazole], the IC50 in data set [1] lay in the range of 51 to 250 nM; in data set [4], 1000 to 5000 nM. In data set [3], the half-life at 1 μM was > 1 h.
Take `FC(F)(F)c1cc(NCc2ccc(-c3ccc(Oc4ccccc4)cc3)cn2)ccn1` [Compound 097, N-((5-(4-phenoxyphenyl)pyridin-2-yl)methyl)-2-(trifluoromethyl)pyridin-4-amine]: the IC50 was in the range of 51 to 250 nM in data set [1], 25000 to 50000 nM in data set [5], 25000 to 50000 nM in data set [6] and 251 to 1000 nM in data set [4]. The solubility at 5 min in data set [2] is > 10 µM.
`Nc1cc(SCc2nc3cc(Cl)ccc3[nH]2)nc(C(F)(F)F)n1` [Compound 118, 6-(((5-Chloro-1H-benzo[d]imidazol-2-yl)methyl)thio)-2-(trifluoromethyl)pyrimidin-4-amine]: the IC50 is 51 to 250 nM in data set [1] and 1000 to 5000 nM in data set [4]. Moreover, the half-life at 1 μM in data set [3] is > 1 h.
Regarding `FC(F)(F)c1cc(NCc2cnc(-c3ccc(Cl)cc3)s2)ccn1` [Compound 072, N-((2-(4-Chlorophenyl)thiazol-5-yl)methyl)-2-(trifluoromethyl)pyridin-4-amine], the half-life at 1 μM in data set [7] and in data set [3] was > 1 h each time. The IC50 in data set [1] was in the range of 51 to 250 nM; in data set [5], 25000 to 50000 nM; in data set [4] it was 251 to 1000 nM. Moreover, in data set [2], the solubility at 5 min was > 25 µM.
As to `CC(C)Oc1ccc(-c2nc(CNc3ccnc(C(F)(F)F)c3)cs2)cc1Cl` [Compound 082, N-((2-(3-Chloro-4-isopropoxyphenyl)thiazol-4-yl)methyl)-2-(trifluoromethyl)pyridin-4-amine], the IC50 in data set [1] was ≤ 50 nM; in data set [4] it was ≤ 250 nM. The half-life at 1 μM in data set [3] is > 1 h.
For the compound `FC(F)(F)Oc1ccc(-n2cc(CNc3ccnc(C(F)(F)F)c3)nn2)cc1` [Compound 012, N-((1-(4-(Trifluoromethoxy)phenyl)-1H-1,2,3-triazol-4-yl)methyl)-2-(trifluoromethyl)pyridin-4-amine], the IC50 is ≤ 50 nM in data set [1], 25000 to 50000 nM in data set [6] and 1000 to 5000 nM in data set [4].
On to `COc1ccc(-c2ncc(CNc3ccnc(C#N)c3)s2)cc1Cl` [Compound 077, 4-(((2-(3-Chloro-4-methoxyphenyl)thiazol-5-yl)methyl)amino)picolinonitrile], for which the values for the IC50 in data set [1], in data set [5] and in data set [4] were ≤ 50 nM, 25000 to 50000 nM and ≤ 250 nM, respectively. In addition, in data set [2], the solubility at 5 min is > 10 µM.
Turning to `FC(F)(F)c1cc(NCc2csc(-c3ccc(Oc4ccccc4)cc3)n2)ccn1` [Compound 080, N-((2-(4-Phenoxyphenyl)thiazol-4-yl)methyl)-2-(trifluoromethyl)pyridin-4-amine], the IC50 is ≤ 50 nM in data set [1], 25000 to 50000 nM in data set [5], 25000 to 50000 nM in data set [6] and 1000 to 5000 nM in data set [4]. Also, in data set [2], the solubility at 5 min is > 10 µM.
For `FC(F)(F)c1cc(NCc2csc(-c3ccc(C4CC4)cc3)n2)ccn1` [Compound 081, N-((2-(4-Cyclopropylphenyl)thiazol-4-yl)methyl)-2-(trifluoromethyl)pyridin-4-amine], the results for the IC50 in data set [1] and in data set [4] were ≤ 50 nM and ≤ 250 nM, respectively. Moreover, the half-life at 1 μM in data set [3] was 0.683 to 1 h.
Take `FC(F)(F)c1cc(SCc2nc3cc(Oc4ccccc4)ccc3[nH]2)ccn1` [Compound 127, 5-Phenoxy-2-(((2-(trifluoromethyl)pyridin-4-yl)thio)methyl)-1H-benzo[d]imidazole]: the IC50 in data set [1] is ≤ 50 nM; in data set [5], 25000 to 50000 nM; in data set [6] it was 25000 to 50000 nM; in data set [4], ≤ 250 nM. Besides, the solubility at 5 min in data set [2] was > 10 µM.
Turning to `FC(F)(F)c1cc(NCc2nc3ccc(Oc4ccccc4)cc3o2)ccn1` [Compound 134, N-((6-Phenoxybenzo[d]oxazol-2-yl)methyl)-2-(trifluoromethyl)pyridin-4-amine], the IC50 in data set [1] lay within 251 to 1000 nM. Also, in data set [2], the solubility at 5 min was ≥ 100 µM. In data set [3], the half-life at 1 μM was > 1 h.
Consider `Cc1cccc(Oc2ccc3[nH]c(CSc4cc(N)nc(C(F)(F)F)n4)nc3c2)c1` [Compound 128, 6-(((5-(m-Tolyloxy)-1H-benzo[d]imidazol-2-yl)methyl)thio)-2-(trifluoromethyl)pyrimidin-4-amine], for which the IC50 was ≤ 50 nM in data set [1], 25000 to 50000 nM in data set [5] and 25000 to 50000 nM in data set [6]. In addition, the solubility at 5 min in data set [2] is > 25 µM.
